According to US20250145588A1, “CRYSTAL FORM OF TAVAPADON, AND PREPARATION METHOD THEREFOR AND USE THEREOF” (CRYSTAL PHARMACEUTICAL (SUZHOU) CO., LTD., priority 2022, published 2025):
“Also recorded” adds a separate entry of the source. Each block holds one molecule with its values, some of them ahead of it.

What was measured:
Type in all cases: physicochemical
[1] = Hygroscopicity and humidity stability by DVS (0% RH-95% RH-0% RH cycle at 25° C., XRPD before and after); conditions: for Hygroscopicity (in words) / Weight gain (water uptake) at 80% RH: DVS; for Form change after DVS test (humidity stability): one cycle 0% RH-95% RH-0% RH, XRPD
Experimental: DVS data in the present disclosure were measured via an SMS (Surface Measurement Systems Ltd.) intrinsic DVS instrument. The instrument control software is DVS-Intrinsic control software. Typical Parameters for DVS test are as follows: • Temperature: 25° C. • Gas and flow rate: N2, 200 mL/minRH range: 0% RH to 95% RH
The hygroscopicity of Form CSI was determined by a DVS instrument with a certain amount of sample. The mass at each relative humidity was recorded during a cycle of 0% RH-95% RH-0% RH at 25° C., and XRPD was collected before and after DVS test.
The hygroscopicity of Form CSII was determined by DVS instrument with a certain amount of sample. The mass at each relative humidity was recorded during the cycle of 0% RH-95% RH-0% RH at 25° C., and XRPD was tested before and after DVS.

[2] = Physical stability upon mechanical force (ball-milling, XRPD before and after grinding); conditions: 500 rpm, 5 minutes
Experimental: Form CSI was ground using a ball-milling at a vibration speed of 500 rpm for 5 minutes.
Form CSII was ground using a ball-milling at a vibration speed of 500 rpm for 5 minutes.

[3] = Storage stability of solid forms (crystalline form by XRPD, chemical purity by HPLC); conditions: for Purity after storage: HPLC
Experimental: XRPD patterns in the present disclosure were acquired by a Bruker X-ray powder diffractometer. The parameters of the X-ray powder diffraction method of the present disclosure are as follows: • X-Ray source: Cu, Kα • Kα1 (Å): 1.54060; Kα2 (Å): 1.54439 • Kα2/Kα1 intensity ratio: 0.50
A certain amount of the prior art solid obtained in Example 4 was packaged with sealed container (with desiccant inside), and stored under 40° C./75% RH. The solid form before and after storage was confirmed by XRPD.
A certain amount of Form CSI was packaged with corresponding package conditions, and then stored under 25° C./60% RH, 40° C./75% RH and 60° C./75% RH. Crystalline form and chemical purity were checked by XRPD and HPLC, respectively. Form CSI kept stable for at least 6 months when stored at 25° C./60% RH open and sealed (with desiccants) package, 40° C./75% RH open and sealed (with desiccants) package, and 60° C./75% RH sealed (with desiccants) package.
A certain amount of Form CSII sample was packaged with corresponding package conditions, and then stored at 25° C./60% RH and 40° C./75% RH. Crystalline form was checked by XRPD. Form CSII kept stable for at least 1 month for both open and sealed (with desiccants) package conditions at 25° C./60% RH and 40° C./75% RH.

- Hygroscopicity (in words) [1]: almost non hygroscopic
- Weight gain (water uptake) at 80% RH [1]: 0.05%
- Time kept stable on storage ([3]; 25° C./60% RH open and sealed (with desiccants), 40° C./75% RH open and sealed (with desiccants), 60° C./75% RH sealed (with desiccants)): at least 6 months
- Purity after storage ([3]; 25° C./60% RH, open, 6 months): 99.85%
- Solid form after storage ([3]; 25° C./60% RH, open, 6 months, XRPD): Form CSI
- Purity after storage ([3]; 25° C./60% RH, sealed (with desiccants), 6 months): 99.85%
- Solid form after storage ([3]; 25° C./60% RH, sealed (with desiccants), 6 months, XRPD): Form CSI
- Time remaining unchanged on storage ([3]; 40° C./75% RH): at least 6 months
- Purity after storage ([3]; 40° C./75% RH, open, 6 months): 99.85%
- Solid form after storage ([3]; 40° C./75% RH, open, 6 months, XRPD): Form CSI
- Purity after storage ([3]; 40° C./75% RH, sealed (with desiccants), 6 months): 99.85%
- Solid form after storage ([3]; 40° C./75% RH, sealed (with desiccants), 6 months, XRPD): Form CSI
- Purity after storage ([3]; 60° C./75% RH, sealed (with desiccants), 6 months): 99.85%
- Solid form after storage ([3]; 60° C./75% RH, sealed (with desiccants), 6 months, XRPD): Form CSI
- Time remaining unchanged on storage ([3]; 60° C./75% RH, sealed package): at least 6 months
Compound: Cc1cc(Oc2ncccc2C(F)(F)F)ccc1-c1c(C)c(=O)[nH]c(=O)n1C (single isomer, unassigned) [Form CSI]
- Form change after DVS test (humidity stability) [1]: No form change; also recorded: remains unchanged
- Form change after grinding [2]: no form change; also recorded: doesn't change after grinding

Compound: Cc1cc(Oc2ncccc2C(F)(F)F)ccc1-c1c(C)c(=O)[nH]c(=O)n1C [prior art solid, reference compound]
- Solid form change after storage ([3]; 40° C./75% RH, sealed container with desiccant, 10 days, XRPD): undergoes crystal transformation; also recorded: undergoes crystalline transformation

- Hygroscopicity (in words) [1]: almost non hygroscopic
- Weight gain (water uptake) at 80% RH [1]: 0.19%
- Solid form after storage ([3]; 25° C./60% RH, sealed (with desiccants), 1 month, XRPD): Form CSII
- Time kept stable on storage ([3]; open and sealed (with desiccants) package at 25° C./60% RH and 40° C./75% RH): at least 1 month
Compound: Cc1cc(Oc2ncccc2C(F)(F)F)ccc1-c1c(C)c(=O)[nH]c(=O)n1C (single isomer, unassigned) [Form CSII]
- Form change after DVS test (humidity stability) [1]: No form change; also recorded: remains unchanged
- Form change after grinding [2]: no form change; also recorded: doesn't change after grinding
- Solid form after storage ([3]; 40° C./75% RH, sealed (with desiccants), 1 month, XRPD): remains unchanged; also recorded: Form CSII
